In ChEMBL document CHEMBL1125674, “Crystal, solution, and molecular modeling structural properties and muscarinic antagonist activity of azaprophen” (J Med Chem, 1991) one finds Ki data, which are given here for 2 molecules.

The nature of test [1]: (§1) Inhibition of [3H]pirenzepine binding towards muscarinic acetylcholine receptor in rat brain.
Test [2] can be described thus: Inhibition of [3H]QNB binding towards muscarinic acetylcholine receptor in rat heart.
Test [3] deals with T1, Muscarinic acetylcholine receptors; M1 & M2 (Homo sapiens, UniProt P11229+P08172).
T1 sequence (P11229 whole entry): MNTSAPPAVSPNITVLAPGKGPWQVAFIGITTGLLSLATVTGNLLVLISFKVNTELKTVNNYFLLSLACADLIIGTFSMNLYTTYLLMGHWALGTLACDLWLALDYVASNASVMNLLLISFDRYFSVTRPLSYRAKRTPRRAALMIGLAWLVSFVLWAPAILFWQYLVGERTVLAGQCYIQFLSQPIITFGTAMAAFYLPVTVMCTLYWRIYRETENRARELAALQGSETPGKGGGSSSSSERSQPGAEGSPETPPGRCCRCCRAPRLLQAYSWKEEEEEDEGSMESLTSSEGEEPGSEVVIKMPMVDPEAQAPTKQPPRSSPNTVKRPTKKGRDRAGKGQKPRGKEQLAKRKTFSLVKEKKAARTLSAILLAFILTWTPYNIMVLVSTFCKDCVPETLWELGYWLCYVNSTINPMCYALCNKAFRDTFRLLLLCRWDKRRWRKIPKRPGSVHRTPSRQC
T1 sequence (P08172 whole entry): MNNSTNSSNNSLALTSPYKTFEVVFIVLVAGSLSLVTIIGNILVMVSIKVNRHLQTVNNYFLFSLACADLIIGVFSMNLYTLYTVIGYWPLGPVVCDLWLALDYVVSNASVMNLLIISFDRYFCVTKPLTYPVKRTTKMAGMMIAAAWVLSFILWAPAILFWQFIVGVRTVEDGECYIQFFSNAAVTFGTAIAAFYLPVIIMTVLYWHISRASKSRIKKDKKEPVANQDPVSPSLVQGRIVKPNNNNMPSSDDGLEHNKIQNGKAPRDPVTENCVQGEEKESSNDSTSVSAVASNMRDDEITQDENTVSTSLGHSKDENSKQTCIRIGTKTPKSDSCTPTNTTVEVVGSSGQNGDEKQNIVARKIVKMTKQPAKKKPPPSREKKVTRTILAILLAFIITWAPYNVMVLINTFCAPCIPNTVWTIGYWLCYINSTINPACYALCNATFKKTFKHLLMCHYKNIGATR
The test is described as follows: Inhibition of [3H]QNB binding towards muscarinic acetylcholine receptor in guinea pig ileum. The following applies: target entry is the homologue from another species. Type of test: tissue-based, Cavia porcellus.

Test [4] is described as follows: Inhibition of [3H]QNB binding towards muscarinic acetylcholine receptor in rat brain. The class given is tissue-based.
Test [5] is described as follows: as §1. The class given is tissue-based.
For test [6], the target named is T2, Muscarinic acetylcholine receptor M1 (Homo sapiens, UniProt P11229).
T2 sequence (P11229 whole entry): T1 sequence (P11229 whole entry)
The test is described as follows: Inhibition of [3H]QNB binding to CHO cells bearing transfected muscarinic acetylcholine receptor M1. The class given is cell-based, Cricetulus griseus.

The target in test [7] is Muscarinic acetylcholine receptor M3 (Homo sapiens, UniProt P20309). The test is described as follows: Inhibition of [3H]QNB binding to CHO cells bearing transfected muscarinic acetylcholine receptor M3. Type of test: cell-based, Cricetulus griseus.
Chain of Muscarinic acetylcholine receptor M3 (P20309 whole entry, looked up): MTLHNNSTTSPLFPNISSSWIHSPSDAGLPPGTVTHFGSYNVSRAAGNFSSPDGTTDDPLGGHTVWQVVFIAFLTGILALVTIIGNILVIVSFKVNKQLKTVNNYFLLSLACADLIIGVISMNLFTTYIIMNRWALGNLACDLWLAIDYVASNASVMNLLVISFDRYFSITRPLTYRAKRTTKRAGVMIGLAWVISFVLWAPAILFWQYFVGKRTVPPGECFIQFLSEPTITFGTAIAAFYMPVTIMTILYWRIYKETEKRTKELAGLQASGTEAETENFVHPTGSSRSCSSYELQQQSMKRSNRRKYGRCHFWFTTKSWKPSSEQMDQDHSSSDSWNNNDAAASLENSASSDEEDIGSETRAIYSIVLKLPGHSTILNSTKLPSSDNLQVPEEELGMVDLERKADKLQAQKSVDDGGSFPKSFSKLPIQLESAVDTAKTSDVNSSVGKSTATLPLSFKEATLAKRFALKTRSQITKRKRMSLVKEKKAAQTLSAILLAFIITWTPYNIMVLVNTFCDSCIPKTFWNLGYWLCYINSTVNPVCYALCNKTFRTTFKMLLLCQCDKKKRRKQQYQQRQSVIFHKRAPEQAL

As usually defined, the Ki is a measure of affinity in units of concentration, obtained from inhibition or displacement. Take `CN1[C@@H]2CC[C@H]1C[C@@H](OC(=O)C(CO)c1ccccc1)C2` (stereo partly drawn) [ATROPINE]: the inhibition constant (Ki) in test [1] and in test [2] was 0.545 nM throughout.

As to `CN1CC2CC(OC(=O)C(C)(c3ccccc3)c3ccccc3)CC1C2` (stereo not drawn) [AZAPROPHEN], the inhibition constant (Ki) in test [3] is 0.279 nM; in test [4] it was 0.118 nM; in test [5], 0.196 nM; in test [6], 0.088 nM; in test [2], 0.13 nM; in test [7] it was 0.472 nM.
